{"source": "patent US11084829B2", "about": "“Ubiquitin-specific-processing protease 7 (USP7) modulators and uses thereof” (RAPT THERAPEUTICS, INC., priority 2018, dated 2021)", "data": [{"molecular_target": "USP7 (Homo sapiens, UniProt Q93009)", "sequence (Q93009 whole entry)": "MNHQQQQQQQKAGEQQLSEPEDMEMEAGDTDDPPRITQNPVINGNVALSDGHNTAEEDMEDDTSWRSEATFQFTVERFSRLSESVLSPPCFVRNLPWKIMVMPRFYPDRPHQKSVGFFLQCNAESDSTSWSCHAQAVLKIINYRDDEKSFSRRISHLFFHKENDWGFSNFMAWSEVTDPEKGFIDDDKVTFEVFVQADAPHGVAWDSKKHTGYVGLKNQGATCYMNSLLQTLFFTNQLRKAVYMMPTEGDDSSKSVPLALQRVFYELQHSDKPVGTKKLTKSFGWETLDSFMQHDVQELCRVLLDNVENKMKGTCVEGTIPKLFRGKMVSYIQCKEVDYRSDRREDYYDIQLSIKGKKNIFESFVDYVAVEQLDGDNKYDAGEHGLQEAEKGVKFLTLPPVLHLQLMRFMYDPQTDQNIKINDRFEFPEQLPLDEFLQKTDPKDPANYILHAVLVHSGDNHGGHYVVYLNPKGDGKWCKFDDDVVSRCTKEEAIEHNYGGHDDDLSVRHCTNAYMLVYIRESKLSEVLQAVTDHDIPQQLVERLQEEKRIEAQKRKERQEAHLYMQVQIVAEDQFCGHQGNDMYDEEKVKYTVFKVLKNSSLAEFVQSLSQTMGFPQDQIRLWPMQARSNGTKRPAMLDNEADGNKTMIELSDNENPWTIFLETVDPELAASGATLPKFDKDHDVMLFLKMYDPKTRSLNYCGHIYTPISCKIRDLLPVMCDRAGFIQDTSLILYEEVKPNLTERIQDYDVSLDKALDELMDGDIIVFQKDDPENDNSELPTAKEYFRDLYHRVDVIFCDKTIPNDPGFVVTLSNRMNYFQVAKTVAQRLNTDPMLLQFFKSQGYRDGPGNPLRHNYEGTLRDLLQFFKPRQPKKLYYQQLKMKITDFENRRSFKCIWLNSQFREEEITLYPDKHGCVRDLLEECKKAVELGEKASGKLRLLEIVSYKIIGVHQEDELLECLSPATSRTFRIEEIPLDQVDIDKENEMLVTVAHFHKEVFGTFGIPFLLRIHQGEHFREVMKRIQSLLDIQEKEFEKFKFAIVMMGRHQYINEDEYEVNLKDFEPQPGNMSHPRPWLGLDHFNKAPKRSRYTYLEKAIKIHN", "test": "USP7 inhibitory potency (IC50)", "assay_type": "biochemical", "description": "Activity for compounds described herein is provided in Table 2, wherein potency levels are provided as follows: (Potency: USP7 IC50: A<0.01 μM; B=0.01-0.1 μM; C=>0.1 μM.", "units": {"IC50": "nM"}, "values": [{"compound": "C[C@H]1CNC[C@H](C)N1Cc1c(Cl)cc(Cl)cc1-c1ncnc2cc(CN3C(=O)CN(C)C3=O)sc12", "note": "[Example 94, 3-((4-(3,5-dichloro-2-(((2S,6S)-2,6-dimethylpiperazin-1-yl)methyl)phenyl)thieno[3,2-d]pyrimidin-6-yl)methyl)-1-methylimidazolidine-2,4-dione]", "IC50": "< 10"}, {"compound": "Cc1cc(Cl)cc(-c2ncnc3cc(CN4C(=O)C5C(C4=O)C5(C)C)sc23)c1CN1CCNC[C@@H]1C", "note": "(stereo partly drawn) [Example 50, 3-((4-(5-chloro-3-methyl-2-(((S)-2-methylpiperazin-1-yl)methyl)phenyl)thieno[3,2-d]pyrimidin-6-yl)methyl)-6,6-dimethyl-3-azabicyclo[3.1.0]hexane-2,4-dione]", "IC50": "< 10"}, {"compound": "Cc1cc(Cl)cc(-c2ccnc3cc(CN4C(=O)CCC4=O)sc23)c1CN1CCN(C)C[C@@H]1C", "note": "[Example 3, (S)-1-((7-(5-chloro-2-((2,4-dimethylpiperazin-1 yl)methyl)-3-methylphenyl)thieno[3,2-b]pyridin-2-yl)methyl)pyrrolidine-2,5-dione]", "IC50": "< 10"}, {"compound": "Cc1cc(Cl)cc(-c2ccnc3cc(CN4C(=O)CCC4=O)sc23)c1CN1CC2CC1CN2", "note": "(centres unmarked) [Example 15, 1-((7-(2-((2,5-diazabicyclo[2.2.1]heptan-2-yl)methyl)-5-chloro-3-methylphenyl)thieno[3,2-b]pyridin-2-yl)methyl)pyrrolidine-2,5-dione]", "IC50": "< 10"}, {"compound": "3-((7-(3,5-dichloro-2-(((2S,6S)-2,6-dimethylpiperazin-1-yl)methyl)phenyl)thieno[3,2-b]pyridin-2-yl)methyl)-1-methylpyrimidine-2,4(1H,3H)-dione [Example 95]", "IC50": "< 10"}, {"compound": "Cc1cc(Cl)cc(-c2ncnc3cc(CN4C(=O)C5CCC5C4=O)sc23)c1CC1CNCCO1", "note": "(centres unmarked) [Example 170, 3-((4-(5-chloro-3-methyl-2-(morpholin-2-ylmethyl)phenyl)thieno[3,2-d]pyrimidin-6-yl)methyl)-3-azabicyclo[3.2.0]heptane-2,4-dione]", "IC50": "< 10"}, {"compound": "C[C@@H]1CN(Cc2c(Cl)cc(Cl)cc2-c2ccnc3cc(CN4C(=O)C5CC5C4=O)sc23)[C@@H](C)CN1", "note": "(stereo partly drawn) [Example 43, 3-((7-(3,5-dichloro-2-(((2S,5R)-2,5-dimethylpiperazin-1-yl)methyl)phenyl)thieno[3,2-b]pyridin-2-yl)methyl)-3-azabicyclo[3.1.0]hexane-2,4-dione]", "IC50": "< 10"}, {"compound": "Cc1cc(Cl)cc(-c2ccnc3cc(CN4C(=O)C5CC5C4=O)sc23)c1CN1C[C@H](C)NC[C@@H]1C", "note": "(stereo partly drawn) [Example 33, 3-((7-(5-chloro-2-(((2S,5 S)-2,5-dimethylpiperazin-1-yl)methyl)-3-methylphenyl)thieno[3,2-b]pyridin-2-yl)methyl)-3-azabicyclo[3.1.0]hexane-2,4-dione]", "IC50": "< 10"}, {"compound": "Cc1cc(Cl)cc(-c2ncnc3cc(Cn4c(=O)ccn(CC(F)(F)F)c4=O)sc23)c1CN1C[C@@H](C)NC[C@@H]1C", "note": "[Example 73, 3-((4-(5-chloro-2-(((2S,5R)-2,5-dimethylpiperazin-1-yl)methyl)-3-methylphenyl)thieno[3,2-d]pyrimidin-6-yl)methyl)-1-(2,2,2-trifluoroethyl)pyrimidine-2,4(1H,3H)-dione]", "IC50": "< 10"}, {"compound": "Cc1cc(Cl)cc(-c2ncnc3cc(CN4C(=O)CCC4=O)sc23)c1CN1[C@@H](C)CNC[C@@H]1C", "note": "[Example 77, 1-((4-(5-chloro-2-(((2S,6S)-2,6-dimethylpiperazin-1-yl)methyl)-3-methylphenyl)thieno[3,2-d]pyrimidin-6-yl)methyl)pyrrolidine-2,5-dione]", "IC50": "< 10"}, {"compound": "Cc1cc(Cl)cc(-c2ncnc3cc(CN4C(=O)CN(C)C4=O)sc23)c1CC1CNCC(C)(C)O1", "note": "(centres unmarked) [Example 183, 3-((4-(5-chloro-2-((6,6-dimethylmorpholin-2-yl)methyl)-3-methylphenyl)thieno[3,2-d]pyrimidin-6-yl)methyl)-1-methylimidazolidine-2,4-dione]", "IC50": "< 10"}, {"compound": "Cc1cc(Cl)cc(-c2ncnc3cc(CN4C(=O)C5CC5C4=O)sc23)c1CN1C[C@@H](C)NC[C@@H]1C", "note": "(stereo partly drawn) [Example 65, 3-((4-(5-chloro-2-(((2S,5R)-2,5-dimethylpiperazin-1-yl)methyl)-3-methylphenyl)thieno[3,2-d]pyrimidin-6-yl)methyl)-3-azabicyclo[3.1.0]hexane-2,4-dione]", "IC50": "< 10"}, {"compound": "Cc1cc(Cl)cc(-c2ncnc3cc(CN4C(=O)C5CC5C4=O)sc23)c1CC1CNCC2(CC2)O1", "note": "(centres unmarked) [Example 208, 3-((4-(2-((4-oxa-7-azaspiro[2.5]octan-5-yl)methyl)-5-chloro-3-methylphenyl)thieno[3,2-d]pyrimidin-6-yl)methyl)-3-azabicyclo[3.1.0]hexane-2,4-dione]", "IC50": "< 10"}, {"compound": "Cc1cc(Cl)cc(-c2ncnc3cc(CN4C(=O)C5CCC5C4=O)sc23)c1CC1CNCC(C)(C)O1", "note": "(centres unmarked) [Example 180, 3-((4-(5-chloro-2-((6,6-dimethylmorpholin-2-yl)methyl)-3-methylphenyl)thieno[3,2-d]pyrimidin-6-yl)methyl)-3-azabicyclo[3.2.0]heptane-2,4-dione]", "IC50": "< 10"}, {"compound": "Cc1cc(Cl)cc(-c2ncnc3cc(CN4C(=O)CC[C@@H]4C(F)F)sc23)c1C[C@@H]1CNCC(C)(C)O1", "note": "[Example 242, (R)-1-((4-(5-chloro-2-(((R)-6,6-dimethylmorpholin-2-yl)methyl)-3-methylphenyl)thieno[3,2-d]pyrimidin-6-yl)methyl)-5-(difluoromethyl)pyrrolidin-2-one]", "IC50": "< 10"}, {"compound": "Cc1cc(Cl)cc(-c2ccnc3cc(CN4C(=O)C5CCCN5C4=O)sc23)c1CC1CNCCO1", "note": "(centres unmarked) [Example 116, 2-((7-(5-chloro-3-methyl-2-(morpholin-2-ylmethyl)phenyl)thieno[3,2-b]pyridin-2-yl)methyl)tetrahydro-1H-pyrrolo[1,2-c]imidazole-1,3(2H)-dione]", "IC50": "< 10"}, {"compound": "Cc1cc(Cl)cc(-c2ncnc3cc(CN4C(=O)NCC(C)C4=O)sc23)c1C[C@@H]1CNCCO1", "note": "(stereo partly drawn) [Example 249, 3-((4-(5-chloro-3-methyl-2-(((R)-morpholin-2-yl)methyl)phenyl)thieno[3,2-d]pyrimidin-6-yl)methyl)-5-methyldihydropyrimidine-2,4(1H,3H)-dione]", "IC50": "< 10"}, {"compound": "COC[C@H]1CCC(=O)N1Cc1cc2ncnc(-c3cc(Cl)cc(C)c3CC3CNCC(C)(C)O3)c2s1", "note": "(stereo partly drawn) [Example 229, (5R)-1-((4-(5-chloro-2-((6,6-dimethylmorpholin-2-yl)methyl)-3-methylphenyl)thieno[3,2-d]pyrimidin-6-yl)methyl)-5-(methoxymethyl)pyrrolidin-2-one]", "IC50": "10 to 100"}, {"compound": "CCN1CCN(Cc2c(C)cc(Cl)cc2-c2ccnc3cc(CN4C(=O)C5C(C4=O)C5(C)C)sc23)[C@@H](C)C1", "note": "(stereo partly drawn) [Example 24, 3-((7-(5-chloro-2-(((S)-4-ethyl-2-methylpiperazin-1-yl)methyl)-3-methylphenyl)thieno[3,2-b]pyridin-2-yl)methyl)-6,6-dimethyl-3-azabicyclo[3.1.0]hexane-2,4-dione]", "IC50": "< 10"}, {"compound": "Cc1cc(Cl)cc(-c2ccnc3cc(CN4C(=O)CN(C)C4=O)sc23)c1C[C@@H]1CNCCO1", "note": "[Example 126, (R)-3-((7-(5-chloro-3-methyl-2-(morpholin-2-ylmethyl)phenyl)thieno[3,2-b]pyridin-2-yl)methyl)-1-methylimidazolidine-2,4-dione]", "IC50": "< 10"}]}]}
